In the supplement of paper PMC10307832:

Experiments:
Assay in all cases: relative viability (nuclei count vs DMSO), 5 days (fraction); higher = more cells survive
Dactolisib + Decitabine = compound: Cn1c(=O)n(-c2ccc(C(C)(C)C#N)cc2)c2c3cc(-c4cnc5ccccc5c4)ccc3ncc21 [Dactolisib] + Nc1ncn([C@H]2C[C@H](O)[C@@H](CO)O2)c(=O)n1 [Decitabine] (partner 2 µM)
Summary of the method: (§1)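 Each reported value is a median over duplicate plates. It expresses relative viability: treated-well nuclei count divided by vehicle-well nuclei count. Lung cancer cell lines in 1536-well plates were dosed by pin tool a day after seeding, alone with one drug or with a fixed anchor-drug dose plus five library-drug doses (not always all listed) in √10 steps, and nuclei were counted after 5 days.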

Dactolisib + Olaparib = compound: Cn1c(=O)n(-c2ccc(C(C)(C)C#N)cc2)c2c3cc(-c4cnc5ccccc5c4)ccc3ncc21 [Dactolisib] + O=C(c1cc(Cc2n[nH]c(=O)c3ccccc23)ccc1F)N1CCN(C(=O)C2CC2)CC1 [Olaparib] (partner 8 µM)
Summary of the method: as §1

Dactolisib + OSI-027 = compound: Cn1c(=O)n(-c2ccc(C(C)(C)C#N)cc2)c2c3cc(-c4cnc5ccccc5c4)ccc3ncc21 [Dactolisib] + COc1cccc2cc(-c3nc([C@H]4CC[C@H](C(=O)O)CC4)n4ncnc(N)c34)[nH]c12 [OSI-027] (partner 0.5 µM)
Summary of the method: as §1

AZ505 + Pemetrexed = compound: C1CCC(CC1)N(CCNCCC2=C3C(=C(C=C2)O)NC(=O)CO3)C(=O)CCNCCC4=CC(=C(C=C4)Cl)Cl [AZ505] + Nc1nc2[nH]cc(CCc3ccc(C(=O)N[C@@H](CCC(=O)O)C(=O)O)cc3)c2c(=O)[nH]1 [Pemetrexed] (partner 0.2 µM)
Summary of the method: as §1

Cell Line	relative viability (Dactolisib + Decitabine; first compound 0.002 µM)	relative viability (Dactolisib + Decitabine; first compound 0.006325 µM)	relative viability (Dactolisib + Decitabine; first compound 0.02 µM)	relative viability (Dactolisib + Decitabine; first compound 0.06325 µM)	relative viability (Dactolisib + Decitabine; first compound 0.2 µM)	relative viability (Dactolisib + Olaparib; first compound 0.002 µM)	relative viability (Dactolisib + Olaparib; first compound 0.006325 µM)	relative viability (Dactolisib + Olaparib; first compound 0.02 µM)	relative viability (Dactolisib + Olaparib; first compound 0.06325 µM)	relative viability (Dactolisib + Olaparib; first compound 0.2 µM)	relative viability (Dactolisib + OSI-027; first compound 0.002 µM)	relative viability (Dactolisib + OSI-027; first compound 0.006325 µM)	relative viability (Dactolisib + OSI-027; first compound 0.02 µM)	relative viability (Dactolisib + OSI-027; first compound 0.06325 µM)	relative viability (Dactolisib + OSI-027; first compound 0.2 µM)	relative viability (AZ505 + Pemetrexed; first compound 0.08 µM)	relative viability (AZ505 + Pemetrexed; first compound 0.253 µM)	relative viability (AZ505 + Pemetrexed; first compound 0.8 µM)	relative viability (AZ505 + Pemetrexed; first compound 2.53 µM)	relative viability (AZ505 + Pemetrexed; first compound 8 µM)
EMC-BAC-2	1.01	0.861	0.888	0.54	0.551	0.613	0.433	0.464	0.372	0.356	0.395	0.439	0.405	0.346	0.296	0.412	0.491	0.417	0.499	0.451
NCI-H2405	0.803	0.76	0.687	0.429	0.352	0.866	0.86	0.858	0.5	0.409	0.67	0.652	0.685	0.543	0.464	0.715		0.841	0.882	0.97
NCI-H358	0.303	0.204	0.202	0.141	0.127	0.675	0.557	0.552	0.478	0.169	0.805	0.683	0.585	0.254	0.173	0.177	0.227	0.158	0.179	0.184
NCI-H1944	0.502	0.416	0.45	0.272	0.262	0.548	0.386	0.397	0.265	0.21	0.467	0.418	0.418	0.281	0.195	0.748	0.558	0.796	0.499	0.597
NCI-H1648	0.478	0.476	0.595	0.452	0.343	0.998	0.78	0.799	0.473	0.246	0.246	0.286	0.279	0.235	0.263		0.743	0.679	0.79	0.953
EPLC-272H	0.36	0.364	0.317	0.281	0.23	0.807	0.486	0.512	0.284	0.232	0.34	0.288	0.356	0.334	0.3	0.246	0.318	0.254	0.245	0.232
NCI-H1915	0.291	0.259	0.266	0.285	0.251	0.254	0.253	0.293	0.264	0.246	0.723	0.704	0.716	0.535	0.418	0.541	0.492	0.534	0.614	0.525
NCI-H596	1	0.965	0.814	0.718	0.523	0.656	0.719	0.527	0.417	0.329	0.694	0.653	0.692	0.399	0.315	0.463		0.469	0.564	0.483
NCI-H322M	0.759	0.712	0.631	0.661	0.608	0.752	0.789	0.774	0.719	0.674	0.542	0.56	0.562	0.535	0.515	0.604		0.61	0.647	0.648
NCI-H2342	0.726	0.689	0.677	0.58	0.501	0.411	0.369	0.501	0.376	0.382	0.684	0.67	0.572	0.695	0.518	0.711	0.737	0.836	0.776	0.853
NCI-H647	0.487	0.292	0.188	0.116	0.14	0.54	0.349	0.315	0.129	0.0846	0.734	0.863	0.499	0.144	0.184	0.158	0.155	0.195	0.196	0.184
SK-MES-1	0.43	0.362	0.369	0.251	0.231	0.739	0.685	0.531	0.286	0.171	0.612	0.601	0.603	0.324	0.242	0.81	0.909	0.875	0.949	0.882
NCI-H2170	0.489	0.466	0.476	0.371	0.354	0.535	0.533	0.601	0.389	0.255	0.763	0.639	0.689	0.543	0.37	0.254	0.257	0.238	0.253	0.264
NCI-H2085	0.685	0.496	0.514	0.405	0.373	0.887	0.778	0.689	0.513	0.359	0.737	0.609	0.663	0.319	0.269	0.832	0.758	0.78	0.835	0.965
NCI-H441	0.285	0.256	0.31	0.233	0.203	0.784	0.571	0.597	0.248	0.25	0.915	0.725	0.716	0.44	0.344	0.254	0.272	0.278	0.308	0.262
LOU-NH91	0.772	0.791	0.795	0.623	0.565	0.832	0.901	0.886	0.608	0.632	0.701	0.716	0.741	0.732	0.519	0.327	0.338	0.324	0.382	0.349
